One compound from publication PMC7367283, “A PIP2 substitute mediates voltage sensor-pore coupling in KCNQ activation” (Communications Biology, 2020) can be followed below.

This assay deals with guinea pig ventricular myocytes. Nature of the assay: Action potential recording in ventricular myocytes with moxifloxacin-prolonged (LQT) action potentials. Type of assay: cell-based. Also noted: actional potential duration (APD), Fig. 7h: unit not given here. Conditions: for actional potential duration (APD), Fig. 7h: Moxi-Group, individual cells. The protocol:
Fig. 7 Effects of CP1 on IKs and action potentials in cardiomyocytes. a IKs currents in guinea pig ventricular myocytes in the absence and presence of 30 µM CP1 in the whole-cell patch-clamp configuration. Holding potential: −40 mV; testing potentials: −20 to +60 mV with 10-mV increment; returning potential: −20 mV. […] Guinea pig ventricular myocytes were first perfused with 10 µM CP1 and 10 µM chromanol. After APD reached steady state, 10 µM CP1 was constitutively perfused alone. Last, CP1 was washed out for near-full reversal of APD shortening. g Effects of 0.2 µM CP1 on LQT action potentials. To mimic the LQT, 100 µM moxifloxacin was applied 2 h before the treatment of CP1. h Change of action potential duration after application of different [CP1]s (n = 5–7). Tukey–Kramer ANOVA test was used to compare control cells in different CP1 concentration, # is significant at P < 0.05. Unpaired two-tailed Student t tests were used to compare control and moxifloxacin cells at different CP1 concentration: * is significant at P < 0.05.
In ventricular myocytes, the duration and the morphology of action potentials are determined by various ion channels. Mutations in many of these channels and drugs that modify channel functions, such as an increase in inward Na^+ currents or decrease in outward K^+ currents, may lead to a prolonged action potential duration, which results in an inherited or acquired long QT syndrome that predisposes afflicted patients to cardiac arrhythmia. An enhancement of the outward IKs current may be able to counter these mutations or drug effects, and restore the action potential duration to more normal values. […] Next, we used an IKr blocker (Moxifloxacin, Moxi) to prolong action potentials and then applied various concentrations of CP1.
The use of guinea pigs was approved by the Stony Brook University Institutional Animal Care and Use Committee. Single ventricular myocytes were acutely enzymatically isolated from guinea pig heart as previously described. Guinea pigs, weighing 300–500 g, were sacrificed by peritoneal injection of sodium pentobarbitone (1 ml, 390 mg/ml). The isolated cells were stored in KB solution containing (in mM) 83 KCl, 30 K2HPO4, 5 MgSO4, 5 Na pyruvate, 5 β-OH-butyric acid, 20 creatine, 20 taurine, 10 glucose, and 0.5 EGTA, pH 7.2.
Action potentials were recorded with whole-cell patch-clamp recording techniques. Current-clamp configuration was used. Freshly isolated guinea pig cardiac myocytes were placed at 1 Hz with a stimulus of 180-pA amplitude and 10-mS duration. The APD was determined at 90% repolarization. Several minutes were allowed for the APD to reach steady state before data were collected. Typical Tyrode mimic AP Solution for action potential recording was used. The bath solution is composed of (in mM) 140 NaCl, 3 KCl, 1 MgCl2, 1.8 CaCl2, 10 HEPES, and 10 Glucose, pH 7.4. The pipette solution is composed of (in mM) 115 K-aspartic acid, 35 KOH, 3 MgCl2, 10 HEPES, 11 EGTA, 5 Glucose, and 3 MgATP, pH 7.4.

“And” between values parts separate entries of the source, which are not always exact repeats. Equal values may be shown once.

`O=S(=O)([O-])Oc1c(-c2sc3c(ccc4cccc(Cl)c43)c2OS(=O)(=O)[O-])[nH]c2ccc(Br)cc12.[Na+].[Na+]` [CP1, DISODIUM 5-BROMO-2-[9-CHLORO-3-(SULFONATOOXY) NAPHTHO [1,2-B] THIEN-2-YL]-1H-INDOL-3-YL SULFATE]: the action potential duration result by setting is: (0.2 µM CP1, 100 µM moxifloxacin applied 2 h before) “return the action potential duration back to normal”; (0.6 and 6 µM CP1, moxifloxacin) “reduced Moxifloxacin-induced action potential prolongation”. The “actional potential duration (APD), Fig. 7h” value was 628 and 590 and 655 and 646 and 548 and 586 (0.2 µM CP1); 549 and 521 and 579 and 388 and 495 (0.6 µM CP1); 393 and 380 and 396 and 407 and 426 and 406 (6 µM CP1).
